Laboratory results taken from US6989362B1, “Methods of treating dopamine dysregulation using agents that regulate phosphorylation/dephosphorylation in dopamine signaling” (The Rockefeller University, priority 1999, dated 2006).

Experiments:
D1 receptor = test: D1 agonist-induced phosphorylation of PKA substrates in striatal slices; type: cell-based, mouse; details: 1 μM, 10 min
Experimental: Dopamine achieves many of its effects in neurons by activation of the D1 class of dopamine receptors, which are positively coupled to the activation of PKA. […] For this purpose, the state of phosphorylation of GluR1, DARPP-32, ARPP-21, and ARPP-16 was determined using phosphorylation state-specific antibodies. […] No significant difference was observed between wildtype and p35^−/− mice in basal levels of phosphorylation of any of these substrates.

Cdk5 [1] = test: Cdk5 mRNA and protein levels in striatum after chronic cocaine; type: in vivo, rat
Excerpt: FIGS. 8A-8C show the increased expression of Cdk5 in inducible transgenic mice overexpressing ΔFosB and in rats chronically treated with cocaine. […] The positions of oligonucleotides encoding ΔFosB and Cdk5 are indicated. […] Representative labelings are shown for sections from inducible transgenic mice on (Dox) or off doxycycline (H2O) (left) and rats treated chronically with saline or cocaine (right). Quantitation of signals in the caudatoputaman (CP) and nucleus accumbens (NA) are shown. […] Representative Cdk5 immunoblots of striatal tissue dissected from inducible transgenic mice on or off doxycycline (left) and from rats treated chronically with saline or cocaine (right) are shown with quantitation. Data represent means ±SEM for n=6; *p<0.05 compared to control, Student's t test.
ΔFosB-inducible transgenic mice were either fed […] doxycycline or denied doxycycline for 12 weeks. Adult male Sprague-Dawley rats initially weighing between 160-240 g were injected with cocaine or vehicle (i.p., 20 mg/kg, […]) at the same time each day for 8 days. All analyses were initiated 12 hr after the final dose. For in situ hybridization studies, [α-^35S]UTP-labeled riboprobes were prepared by in vitro transcription from cDNA clones corresponding to full-length clones of rat Cdk5 [Zheng et al., J. Neurobiol. 35:141-159 (1998)]. Cryostat sections were prepared and hybridized as previously described. After hybridization, the sections were exposed to Biomax MR film (Kodak) for 2-6 days. All autoradiograms were analyzed with a Microcomputer Imaging Device system (M4, Imaging Research, Inc.) as described elsewhere [Le Moine and Bloch, J. Comp. Neurol. 355:418426 (1995)]. Statistical analyses of the data were performed using two-tailed unpaired Student's t test. Striatal tissue was rapidly dissected on ice and homogenized in boiling lysis buffer containing 1% SDS and 50 mM sodium flouride with sonication. Striatal slice preparation and treatment were conducted as previously described [Example 1, Bibb et al., Nature 402:669-671 (1999); Nishi et al., J. Neurosci 17:8147-8155 (1997)]. […]

[2] = system: dissociated striatal neurons; test: Whole-cell voltage-gated Ca2+ current, patch-clamp of dissociated striatal neurons; type: cell-based, mouse; details: 10 μM
Experimental: The physiological consequence of PKA inhibition by phospho-Thr75 DARPP-32 was also assessed. […] Opin. Neurobiol. 8:330-334 (1998)], were analyzed using patch-clamp recordings of dissociated striatal neurons (FIGS. 3g and 3h). […] This effect was virtually abolished in neurons from DARPP-32 knockout mice (1.6±0.3%, n=5, p<0.01, paired t test).

mouse striatal slices = test: Phosphorylation of PKA substrates in striatal slices treated with roscovitine; details: 10 μM, 1 h
Cdk5 [3] = test: Cocaine-induced locomotor activity with intra-accumbens infusion of Cdk5 inhibitors; type: in vivo, rat; details: rats, intra-accumbens 40 nmol/0.5 μl
Experimental: Doses of cocaine hydrochloride (15 mg/kg i.p. in sterile 0.9% sodium chloride) were chosen to produce a moderate response to cocaine over successive days. […] Drugs were dissolved in sterile phosphate buffered saline containing 50% DMSO. Intracerebral microinfusions were made bilaterally in volumes of 0.5 μl over a period of 2 min with an additional 2 min allowed to elapse prior to removal of the infusion needles and replacement of the stylettes. […] Drugs were given at the same time each day. Subjects were then placed into the chambers and activity was monitored for 60 min.

[4] = rats, 20 mg/kg i.p. daily for 8 days, in situ hybridization

## Oc1cc2c(c(Cl)c1O)CCNCC2c1ccccc1 (stereo not drawn) [SKF 81297]
D1 receptor; p35−/− mouse striatal slices, versus wildtype
  phosphorylation of GluR1, DARPP-32, ARPP-21 and ARPP-16 (PKA sites): to an even greater extent
D1 receptor; wildtype mouse striatal slices
  phosphorylation of GluR1, DARPP-32, ARPP-21 and ARPP-16 (PKA sites): increased

## COC(=O)[C@H]1[C@@H](OC(=O)c2ccccc2)C[C@@H]2CC[C@H]1N2C [cocaine]
Cdk5 [1]; rats exposed chronically, immunoblot
  Cdk5 protein levels in striatal tissue versus control: 180±20%
Cdk5 [1]; [4]
  Cdk5 mRNA levels in caudatoputamen versus saline: 151.8±11.8%
  Cdk5 mRNA levels in nucleus accumbens versus saline: 150.5±10.0%

## CC[C@H](CO)Nc1nc(NCc2ccccc2)c2ncn(C(C)C)c2n1 [roscovitine]
[2]; neurons from DARPP-32 knockout mice
  enhancement of whole-cell Ca2+ current: 1.6±0.3%
[2]; wildtype neurons
  enhancement of whole-cell Ca2+ current: 9.7% ±1.0%
Mouse striatal slices; striatal slices from DARPP-32−/− mice
  increase in phospho-Ser845 GluR1: not observed
Mouse striatal slices; striatal slices
  Total GluR1 levels: unaffected
Mouse striatal slices; wildtype mouse striatal slices
  increase in phosphorylation of ARPP-16 (phospho-Ser88): 2.5±0.2 fold
  increase in phosphorylation of GluR1 (phospho-Ser845): 3.2±0.5 fold

## Cn1cnc2nc(NCCO)nc(NCc3ccccc3)c21 [iso-olomoucine]
Cdk5 [3]
  locomotor or stereotypic responses to cocaine: failed to enhance
